{"source": "ChEMBL document CHEMBL1201862", "about": "“PubChem BioAssay data set” (2004)", "key": {"[1]": {"assay": "M. tuberculosis growth inhibition, HTS (AID 449762)", "type": "functional"}, "[2]": {"assay": "Late stage counterscreen results from the probe development effort to identify activators of signal transducer and activator of transcription 1 (STAT1): luminescence-based cell-based dose response assay to identify cytotoxic compounds.", "type": "functional"}, "[3]": {"molecular_target": "Diphosphomevalonate decarboxylase (Streptococcus pneumoniae serotype 2 (strain D39 / NCTC 7466), UniProt Q9FD53)", "sequence (Q9FD53 whole entry)": "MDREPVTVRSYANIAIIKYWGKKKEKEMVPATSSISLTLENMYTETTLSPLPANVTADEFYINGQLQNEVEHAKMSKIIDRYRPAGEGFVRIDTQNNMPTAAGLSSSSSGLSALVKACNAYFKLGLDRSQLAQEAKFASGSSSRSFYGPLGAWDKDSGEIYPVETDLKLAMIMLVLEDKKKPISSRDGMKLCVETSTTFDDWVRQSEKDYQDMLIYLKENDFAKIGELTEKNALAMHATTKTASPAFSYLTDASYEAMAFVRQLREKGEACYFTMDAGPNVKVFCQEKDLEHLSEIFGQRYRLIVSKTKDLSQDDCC", "assay": "diphosphomevalonate decarboxylase inhibitor confirmation – biochemical, cuvette format, coupled NADH fluorescence (AID 1028)", "type": "functional"}, "[4]": {"molecular_target": "Ubiquitin carboxyl-terminal hydrolase BAP1 (Homo sapiens, UniProt Q92560)", "sequence (Q92560 whole entry)": "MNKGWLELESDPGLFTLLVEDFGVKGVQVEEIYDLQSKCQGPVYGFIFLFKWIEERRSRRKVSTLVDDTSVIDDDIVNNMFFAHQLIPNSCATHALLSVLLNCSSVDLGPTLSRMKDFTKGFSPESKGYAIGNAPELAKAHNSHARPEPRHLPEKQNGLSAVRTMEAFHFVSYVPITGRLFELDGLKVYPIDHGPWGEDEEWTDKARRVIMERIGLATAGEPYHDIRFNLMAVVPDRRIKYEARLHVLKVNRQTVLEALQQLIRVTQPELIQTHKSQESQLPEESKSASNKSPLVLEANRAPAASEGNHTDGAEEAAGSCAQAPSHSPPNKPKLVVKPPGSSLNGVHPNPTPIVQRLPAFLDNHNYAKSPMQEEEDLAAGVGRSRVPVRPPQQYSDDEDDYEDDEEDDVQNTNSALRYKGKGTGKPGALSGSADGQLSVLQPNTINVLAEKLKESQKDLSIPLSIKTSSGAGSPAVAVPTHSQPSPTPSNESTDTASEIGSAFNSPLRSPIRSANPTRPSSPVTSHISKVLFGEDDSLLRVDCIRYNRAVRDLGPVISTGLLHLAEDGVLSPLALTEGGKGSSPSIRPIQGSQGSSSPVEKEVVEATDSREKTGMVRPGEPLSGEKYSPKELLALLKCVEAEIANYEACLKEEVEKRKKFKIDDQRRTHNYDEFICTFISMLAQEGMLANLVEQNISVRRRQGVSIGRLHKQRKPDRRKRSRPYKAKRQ", "assay": "inhibition of BAP1 ubiquitin hydrolase activity – biochemical, dose response (AID 714)", "type": "functional"}, "[5]": {"molecular_target": "T1, Long-chain-fatty-acid--AMP ligase FadD28 (Mycobacterium tuberculosis, UniProt P9WQ59)", "T1 sequence (P9WQ59 whole entry)": "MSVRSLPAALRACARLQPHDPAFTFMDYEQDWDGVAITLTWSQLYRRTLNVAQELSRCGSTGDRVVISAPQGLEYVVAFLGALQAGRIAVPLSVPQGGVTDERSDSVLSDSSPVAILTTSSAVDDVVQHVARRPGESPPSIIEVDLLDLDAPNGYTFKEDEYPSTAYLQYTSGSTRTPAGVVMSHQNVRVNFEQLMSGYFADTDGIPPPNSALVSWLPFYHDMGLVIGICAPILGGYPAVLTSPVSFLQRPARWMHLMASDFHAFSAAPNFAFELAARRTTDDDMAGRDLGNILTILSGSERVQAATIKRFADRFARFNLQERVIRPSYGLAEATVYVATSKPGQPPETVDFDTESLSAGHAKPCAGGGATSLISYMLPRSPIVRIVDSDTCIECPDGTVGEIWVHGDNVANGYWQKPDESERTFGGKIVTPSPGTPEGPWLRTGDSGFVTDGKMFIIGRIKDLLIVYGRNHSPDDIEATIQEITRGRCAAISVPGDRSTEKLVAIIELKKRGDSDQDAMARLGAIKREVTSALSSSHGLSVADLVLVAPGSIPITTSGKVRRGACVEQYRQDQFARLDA", "assay": "Fluorescence polarization aasay to screen for inhibitors that compete for the binding of FadD28 to a bisubstrate Measured in Biochemical System Using Plate Reader - 2147-01_Inhibitor_Dose_CherryPick_Activity.", "type": "functional, Mycobacterium tuberculosis H37Rv"}, "Ephrin type-A receptor 4": {"molecular_target": "Ephrin type-A receptor 4 (Mus musculus, UniProt Q03137)", "sequence (Q03137 whole entry)": "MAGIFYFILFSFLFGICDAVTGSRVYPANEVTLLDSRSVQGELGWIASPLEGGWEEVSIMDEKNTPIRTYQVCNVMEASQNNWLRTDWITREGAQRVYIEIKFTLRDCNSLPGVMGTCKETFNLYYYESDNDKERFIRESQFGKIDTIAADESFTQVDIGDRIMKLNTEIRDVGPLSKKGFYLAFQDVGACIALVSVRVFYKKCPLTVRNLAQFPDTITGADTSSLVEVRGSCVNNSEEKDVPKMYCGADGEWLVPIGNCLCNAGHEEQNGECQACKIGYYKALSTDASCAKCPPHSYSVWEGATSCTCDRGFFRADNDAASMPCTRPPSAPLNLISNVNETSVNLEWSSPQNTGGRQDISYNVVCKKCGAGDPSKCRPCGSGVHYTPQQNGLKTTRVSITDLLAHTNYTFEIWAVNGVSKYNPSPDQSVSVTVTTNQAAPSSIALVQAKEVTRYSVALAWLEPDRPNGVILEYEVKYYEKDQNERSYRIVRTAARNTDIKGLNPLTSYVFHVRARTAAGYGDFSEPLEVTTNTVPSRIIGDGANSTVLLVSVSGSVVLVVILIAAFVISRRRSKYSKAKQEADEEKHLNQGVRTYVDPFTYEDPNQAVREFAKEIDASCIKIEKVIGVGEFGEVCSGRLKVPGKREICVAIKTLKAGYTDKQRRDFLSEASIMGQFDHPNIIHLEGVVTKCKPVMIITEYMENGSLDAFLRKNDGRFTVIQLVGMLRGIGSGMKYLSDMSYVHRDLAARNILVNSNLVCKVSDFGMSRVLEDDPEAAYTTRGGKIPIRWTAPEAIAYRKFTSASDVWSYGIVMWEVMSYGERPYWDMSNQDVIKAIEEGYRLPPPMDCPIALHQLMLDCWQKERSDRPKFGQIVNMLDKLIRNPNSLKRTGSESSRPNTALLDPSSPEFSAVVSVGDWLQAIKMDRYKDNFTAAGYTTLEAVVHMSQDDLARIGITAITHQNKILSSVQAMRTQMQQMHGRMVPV", "assay": "EphA4 ligand-binding antagonists – biochemical, colorimetric, mouse EphA4, primary screen (AID 689)", "type": "functional"}, "Cytochrome P450 2C19": {"molecular_target": "Cytochrome P450 2C19 (Homo sapiens, UniProt P33261)", "sequence (P33261 whole entry)": "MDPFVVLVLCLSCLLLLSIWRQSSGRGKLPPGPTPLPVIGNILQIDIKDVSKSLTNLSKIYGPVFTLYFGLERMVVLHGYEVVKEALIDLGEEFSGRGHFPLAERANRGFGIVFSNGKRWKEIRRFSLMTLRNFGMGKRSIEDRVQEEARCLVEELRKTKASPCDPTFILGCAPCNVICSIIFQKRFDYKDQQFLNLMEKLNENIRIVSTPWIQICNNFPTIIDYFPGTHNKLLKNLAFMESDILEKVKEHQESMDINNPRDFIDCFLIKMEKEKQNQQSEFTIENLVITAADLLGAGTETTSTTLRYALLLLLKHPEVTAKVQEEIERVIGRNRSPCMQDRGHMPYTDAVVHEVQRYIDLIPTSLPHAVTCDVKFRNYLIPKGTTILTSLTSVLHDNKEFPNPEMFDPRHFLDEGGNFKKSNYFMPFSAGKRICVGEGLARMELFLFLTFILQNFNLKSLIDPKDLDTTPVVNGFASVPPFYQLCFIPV", "assay": "Cytochrome panel assay with activity outcomes. Panel member name: p450-cyp2c19 Compounds with AC50 equal or less than 10 uM are considered active", "type": "functional", "conditions": "read-out: AC50"}, "Cytochrome P450 3A4": {"molecular_target": "Cytochrome P450 3A4 (Homo sapiens, UniProt P08684)", "sequence (P08684 whole entry)": "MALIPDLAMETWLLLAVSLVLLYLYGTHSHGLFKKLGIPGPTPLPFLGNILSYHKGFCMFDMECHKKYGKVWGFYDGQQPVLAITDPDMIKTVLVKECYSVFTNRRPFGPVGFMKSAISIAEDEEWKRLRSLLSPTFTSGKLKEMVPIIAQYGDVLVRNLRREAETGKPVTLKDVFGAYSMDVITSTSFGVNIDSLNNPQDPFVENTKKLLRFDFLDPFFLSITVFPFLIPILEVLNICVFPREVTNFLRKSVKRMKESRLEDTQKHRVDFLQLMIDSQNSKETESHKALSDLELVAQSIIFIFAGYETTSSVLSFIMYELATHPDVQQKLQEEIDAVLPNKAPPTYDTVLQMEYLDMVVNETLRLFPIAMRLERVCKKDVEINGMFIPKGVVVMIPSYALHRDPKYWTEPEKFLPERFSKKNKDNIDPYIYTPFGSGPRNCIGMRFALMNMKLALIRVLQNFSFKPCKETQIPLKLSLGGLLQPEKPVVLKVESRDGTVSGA"}}, "note": "Activity calls are given as the source filed them."}
{"smiles": "CC(C)(C)c1nc2sc3c(c2c(=O)o1)CCCC3", "values": [{"measurement": "IC50", "setting": "[1]", "value": "> 100 µM (active)"}]}
{"smiles": "COc1ccc(-c2csc(N3C(=O)CNC3=S)n2)cc1", "values": [{"measurement": "IC50", "setting": "[2]", "value": "> 55.7 µM (not active)"}]}
{"smiles": "O=C(NCc1ccco1)c1ccccc1-n1sc2ccccc2c1=O", "values": [{"measurement": "IC50", "setting": "[3]", "value": "38.7 µM (active)"}]}
{"smiles": "CC1CCCN(S(=O)(=O)c2ccc(NC(=O)Cn3nnc(-c4ccccc4F)n3)cc2)C1", "note": "(stereo not drawn)", "values": [{"measurement": "IC50", "setting": "[4]", "value": "41.6 µM (not active)"}, {"measurement": "AC50", "setting": "[5]", "value": "> 100 µM (inactive)"}]}
{"smiles": "CCOC(=O)c1c(N=C(S)Nc2ccccc2)sc2c1CCN(CCc1ccccc1)C2", "values": [{"measurement": "IC50", "setting": "Ephrin type-A receptor 4", "value": "14.7 µM (active)"}, {"measurement": "AC50", "setting": "Cytochrome P450 2C19", "value": "22.4 µM (inconclusive)"}, {"measurement": "AC50", "setting": "Cytochrome P450 3A4", "value": "22.4 µM (inconclusive)"}]}
